Experimental data published in publication PMC6978316, “Development of chimeric peptides to facilitate the neutralisation of lipopolysaccharides during bactericidal targeting of multidrug-resistant Escherichia coli” (Communications Biology, 2020).
Where a SMILES comes first, the peptide text is derived from it. Bridges are numbered along the chain shown (N, C = ends).

What was measured:
MDR E. coli CVCC195 [1] = experiment: Time-killing curves (bactericidal kinetics); type: cell-based, Escherichia coli; conditions: 1 × or 2 × MIC, MHB, 37 °C
Description: The bactericidal effect of peptides was investigated according to previous methods. […] Physiological saline was added as a control. Bacterial samples (100 μl) were removed at different time points (0, 0.5, 1, 2, 4, 6, 8, 10, and 12 h) and were counted on MH solid plates. The time-killing curve of A6 and G6 was plotted.

MDR E. coli CVCC195 [2] = experiment: pH stability, residual antibacterial activity (inhibition zone); type: physicochemical, Escherichia coli; conditions: inhibition zone vs E. coli CVCC195, mean of n = 3
Description: The N6, A6, and G6 solutions were treated at different temperatures (20–100 °C) for 1 h, dissolved and incubated at different pH values (2–10) for 3 h, or incubated with trypsin or pepsin for 4 h. The inhibition zone diameters were measured after incubation at 37 °C for 18–24 h.

MDR E. coli CVCC195 [3] = experiment: SEM and TEM, cell morphology and ultrastructure; type: cell-based, Escherichia coli; conditions: E. coli CVCC195, 4 × MIC, 2 h; at least 200 cells scored; manuscript lines quoted in the peer review file
Description: SEM was used to examine the ultrastructural changes in bacteria treated with peptides. […] PBS was used as the negative control. After centrifugation, the bacterial precipitation was added with 2.5% glutaraldehyde and the cells were fixed at 4 °C for 24 h. After ethanol dehydration, drying and coating, samples were visualized by a QUANTA200 SEM (FEI, Philips, Netherlands)[65].
The processing and preparation of TEM samples was similar to that of SEM until glutaraldehyde fixation. After washing with PBS, bacterial cells were fixed in 1% […] buffer for 1 h, dehydrated in a series of acetone (50–100%) and embedded, followed by preparation into ultra-thin sections and staining with 1% uranyl acetate. […] At least 200 bacterial cells were visualized and scored for the observed characteristics.

[4] = tested on: binding of FITC-labeled LPS to RAW 264.7 cells; experiment: Binding of FITC-labeled LPS to macrophages (flow cytometry); type: cell-based, mouse; conditions: FITC-LPS 100 μg per ml, 0.1 μM peptide 1 h
Description: Similarly, after an incubation with FITC-labeled LPS and washing with medium, cells were incubated with rhodamine-labeled A6 or G6 (0.1 μM) at 37 °C for 1 h. After washing again, the effects of peptides on the binding of FITC-labeled LPS to the cells were analyzed by CLSM and flow cytometry, respectively.

[5] = tested on: Intestinal alkaline phosphatase (IAP); experiment: IAP level in duodenum of LPS-challenged mice; type: in vivo; conditions: duodenum homogenate, peptides 0.25 μmol per kg, PMB 10 μmol per kg, LPS alone 10.2985, CK 14.2257, n = 3
Description: The mice were intraperitoneally injected with LPS at an absolute LD100 and then were treated with 0.25 μmol per kg peptides (A6, G6 and N6) or 10 μmol per kg PMB at 0.5 h after challenge. The mice were sacrificed at 2 h and the sera were collected to detect inflammatory cytokines (including TNF-α, IL-6 and IL-10) using ELISA kits. To visualize IAP activity, the duodenum was rapidly excised from the mice and was homogenized; the IAP levels in the superpants were detected as described in the Supplementary Information. […]
114 Effects of SCPs on inflammatory cytokines and IAP. The serum sample (50 μl) was added into
115 each well of the plate; 50 μl of TNF-α, IL-I, IL-10 or IAP standard, control and test samples were then
116 added to each well of the plate, followed by placing the latex film on the shaker and incubation for 2
117 h at room temperature. After discarding the liquid in the well, the enzyme labeling plate was placed in
118 a 400 μl washing solution in the washing machine for 4 times; the enzyme labeling plate is inverted
119 and tapped on a clean paper towel so that there was no residual liquid in each hole . Mouse TNF-α，
120 IL-I，IL10 or IAP Conjugate (HRP Conjugate Detection Ab) working solution (100 μl) was added to
121 each well of the plate (diluted 1:100 before the test); the latex film was placed on the shaker and
122 incubated for 2 h at room temperature. After discarding the liquid in the well, the enzyme labeling
123 plate was placed in a 400 μl washing solution in the washing machine for 4 times, then the enzyme
124 labeling plate is inverted, and tapped on a clean paper towel so that there is no residual liquid in each
125 hole. Substrate Solution (100 μl) was added to each well of the plate and incubated at room
126 temperature for 30 min in the dark. Finally, 100 μl of Stop Solution (2N sulfuric acid solution) was
127 added to each well of the plate and gently mixed the plate to stop the reaction. The optical density
128 value was read by placing the microplate in a microplate reader for 30 min with the reading
129 wavelength of 450 nm and the calibration wavelength of 570 nm.
131 1. Kaplan, C. W., et al. Selective membrane disruption: mode of action of C16G2, a specifically
133 2. Eckert, R., et al. Adding selectivity to antimicrobial peptides: rational design of a multidomain
134 peptide against Pseudomonas spp. Antimicrob Agents Chemother. 50(4), 1480–1488 (2006).
135 3. Eckert, R., et al. Targeted killing of Streptococcus mutans by a pheromone-guided "smart"

LPS-induced lung injury = experiment: Protection of lung tissues from LPS (histology); type: in vivo; conditions: LPS-challenged mice, 0.25 μmol per kg
Description: The mice were treated with N6 (0.25 μmol per kg), A6 (0.25 μmol per kg), G6 (0.25 μmol per kg), and PMB (10 μmol per kg), respectively after the intraperitoneal injection of LPS at a concentration of LD100. The lung tissues were taken at 1 d and 6 d, respectively, washed with PBS and placed in 4% paraformaldehyde for 24 h at 4 °C. After washing with PBS, the tissues were dehydrated by a series of different concentrations of ethanol (75%, 85%, 90%, and 95%) and were immersed in xylene for paraffin embedding. After sectioning, the samples were stained with hematoxylin and were observed by a light microscope. The mice challenged with LPS and PBS served as the negative and blank control, respectively.

NF-κB p-p65 subunit = experiment: Western blotting of lung tissues, p-p65/p65; type: in vivo, mice; conditions: for densitometric analysis of p-p65/p65 ratio: LPS + substance, Mean; for inhibition of LPS-induced translocation of the NF-κB p-p65 subunit: lung tissue 8 h, LPS 13.5 mg per kg, western blotting, densitometry
Description: (§1) Additionally, the mice were sacrificed at 8 h and the lung tissues were homogenized and suspended in […] HEPES buffer for 20 min according to standard procedures. After centrifugation at 4 °C for 20 min (12,000 rpm), the protein levels of supernatants were quantified using a Bradford protein assay kit. A total of 30 μg proteins were analyzed on an 8–12% sodium dodecyl sulfate-polyacrylamide gel electrophoresis (SDS-PAGE) gel and were immunoblotted onto PVDF membranes, followed by an incubation with the primary antibodies of p65, p-p65, extracellular signal-regulated kinase (ERK)1/2, p-ERK1/2, and IκBα overnight at 4 °C. After washing, the blots were incubated with the peroxidase conjugated goat-rabbit or goat-mouse antibodies. Relative protein expression levels were quantified by a densitometric measurement of chemiluminescence (ECL) reaction band. β-actin was used as the internal reference.

IκBα = experiment: Western blotting of lung tissues, IκBα/β-actin; type: in vivo, mice; conditions: for densitometric analysis of IκBα/β-actin ratio: LPS + substance, Mean; for effect on LPS-induced IκBα levels: lung tissue 8 h, LPS 13.5 mg per kg, western blotting
Description: as §1

| Compound | time to completely kill E. coli CVCC195 (MDR E. coli CVCC195 [1]) [h] | antibacterial activity after pH treatment (inhibition zone diameter), Mean (MDR E. coli CVCC195 [2]; pH=2 for 3 h) | antibacterial activity after pH treatment (inhibition zone diameter), Mean (MDR E. coli CVCC195 [2]; pH=4 for 3 h) | antibacterial activity after pH treatment (inhibition zone diameter), Mean (MDR E. coli CVCC195 [2]; pH=6 for 3 h) | antibacterial activity after pH treatment (inhibition zone diameter), Mean (MDR E. coli CVCC195 [2]; pH=8 for 3 h) | antibacterial activity after pH treatment (inhibition zone diameter), Mean (MDR E. coli CVCC195 [2]; pH=10 for 3 h) | abnormal cells in TEM (lysis, non-uniform cytoplasmic electron and morphologically abnormal cells) (MDR E. coli CVCC195 [3]) | inhibition rate of FITC-labeled LPS binding to RAW 264.7 cells [4] [%] | IAP, Mean [5] | lung histology at 1 d (LPS-induced lung injury) | lung histology at 6 d (LPS-induced lung injury) | densitometric analysis of p-p65/p65 ratio (NF-κB p-p65 subunit) | inhibition of LPS-induced translocation of the NF-κB p-p65 subunit (NF-κB p-p65 subunit) [%] | densitometric analysis of IκBα/β-actin ratio (IκBα) | effect on LPS-induced IκBα levels (IκBα) |
| --- | --- | --- | --- | --- | --- | --- | --- | --- | --- | --- | --- | --- | --- | --- | --- |
| CC(C)[C@@H]1NC(=O)CNC(=O)[C@H](CC(N)=O)NC(=O)[C@H](CCCNC(=N)N)NC(=O)[C@H](Cc2ccc(O)cc2)NC(=O)[C@H](C(C)C)NC(=O)[C@@H](NC(=O)[C@@H](NC(=O)[C@H](CC(N)=O)NC(=O)[C@H](Cc2c[nH]c3ccccc23)NC(=O)[C@H](C)NC(=O)[C@H](Cc2ccccc2)NC(=O)CNC(=O)[C@H](CO)NC(=O)CNC(=O)CNC(=O)CNC(=O)CNC(=O)[C@H](CCCCN)NC(=O)[C@H](Cc2ccccc2)NC(=O)[C@H](Cc2ccccc2)NC(=O)[C@H](CO)NC(=O)[C@H](C)NC(=O)[C@H](CCCNC(=N)N)NC(=O)[C@@H](NC(=O)[C@H](CCCCN)NC(=O)[C@H](Cc2c[nH]c3ccccc23)NC(=O)[C@H](CCCNC(=N)N)NC(=O)CNC(=O)[C@H](CCC(N)=O)NC(=O)[C@@H](NC(=O)[C@@H](N)CCCNC(=N)N)C(C)C)C(C)C)C(C)C)CSSC[C@@H](C(=O)N[C@@H](Cc2c[nH]cn2)C(=O)N[C@@H](CCCNC(=N)N)C(=O)N[C@@H](CCCNC(=N)N)C(=O)N[C@@H](C)C(=O)N[C@@H](CC(N)=O)C(=O)O)NC(=O)[C@H](C(C)C)NC(=O)[C@H](CCCNC(=N)N)NC1=O [G6] (H-RVQGRWKVRASFFKGGGGSGFAWNVCVYRNGVRVCHRRAN-OH; disulfide 26-35) | ≤ 1 | 1.407 | 1.44 | 1.4 | 1.383 | 1.387 | ~50% | 44.3 | 11.4812 | partial alleviation of tissue swelling and injury | no pathological changes | 0.7685 | 25.3 | 0.9933 | promoted LPS-induced IκBα levels |
| CC(C)[C@@H]1NC(=O)CNC(=O)[C@H](CC(N)=O)NC(=O)[C@H](CCCNC(=N)N)NC(=O)[C@H](Cc2ccc(O)cc2)NC(=O)[C@H](C(C)C)NC(=O)[C@@H](NC(=O)[C@@H](NC(=O)[C@H](CC(N)=O)NC(=O)[C@H](Cc2c[nH]c3ccccc23)NC(=O)[C@H](C)NC(=O)[C@H](Cc2ccccc2)NC(=O)CN)C(C)C)CSSC[C@@H](C(=O)N[C@@H](Cc2c[nH]cn2)C(=O)N[C@@H](CCCNC(=N)N)C(=O)N[C@@H](CCCNC(=N)N)C(=O)N[C@@H](C)C(=O)N[C@@H](CC(N)=O)C(=O)O)NC(=O)[C@H](C(C)C)NC(=O)[C@H](CCCNC(=N)N)NC1=O [N6] (H-GFAWNVCVYRNGVRVCHRRAN-OH; disulfide 7-16; N-terminus and C-terminus assumed) | 4 | 1.883 | 1.877 | 1.87 | 1.86 | 1.887 | 19% | 8 | 10.7594 | partial alleviation of tissue swelling and injury | no pathological changes | 0.9793 | 5 | 1.158 | promoted LPS-induced IκBα levels |
| H-RVQGRWKVRASFFKEAAAKEAAAKGFAWNVCVYRNGVRVCHRRAN-OH (disulfide 31-40) [A6] | ≤ 1 | 1.463 | 1.443 | 1.4 | 1.41 | 1.4 | Approximately 75% | 33.2 | 11.893 | partial alleviation of tissue swelling and injury | no pathological changes | 0.106 | 89.7 | 1.193 | promoted LPS-induced IκBα levels |
| polymyxin B [PMB] | ≤ 1 |  |  |  |  |  | 1% | 13.5 | 13.0879 |  |  | 0.01553 | 98.4 | 1.0324 | promoted LPS-induced IκBα levels |
